ChEMBL document CHEMBL5052853, “Isoxazole derivatives targeting tacc3 as anticancer agents” (2021)
pIC50, pKd: −log10 of the molar value. The source made the active and inactive calls. The rule behind the calls is not given here.

Columns and labels:
[1] = Toxicity in human JIMT-1 cells xenografted female immunodeficient nude mouse assessed as effect on body weight at 5 mg/kg, po administered every other day for 30 days; type: organism-based; settings: in vivo, 720 h, time 30 day
[2] = tested on: JIMT-1; assay: Antitumor activity in human JIMT-1 cells xenografted female immunodeficient nude mouse at 5 mg/kg, po administered every other day for 30 days; type: functional, organism-based; settings: time 30.0 day
[3] = tested on: JIMT-1; assay: Induction of mitotic arrest in human JIMT-1 cells assessed as increase in aberrant spindle formation at 200 to 500 nM measured by DAPI staining method; type: functional, cell-based; settings: dose 200-500 nM
[4] = tested on: RT-112; assay: Antiproliferative activity against human RT-112 cells after 3 days by SRB assay; type: functional, cell-based; settings: RT-112, 72 h
[5] = tested on: JIMT-1; assay: Induction of mitotic arrest in human JIMT-1 cells assessed as increase in multipolar spindles formation at 200 to 500 nM; type: functional, cell-based; settings: dose 200-500 nM
[6] = tested on: HCC1954; assay: Antiproliferative activity against human HCC1954 cells; type: functional, cell-based
[7] = Kinetic solubility in sodium phosphate buffer at pH 7.4 at 25 degree C after 2 hrs; type: physicochemical; settings: read-out: Kinetic_solubility
[8] = tested on: HCT-116; assay: Antitumor activity in human HCT-116 cells xenografted immunocompromised female nude mouse at 25 to 50 mg/kg, po administered daily; type: functional, organism-based; settings: dose 25-50 mg/kg
[9] = Toxicity in female nude mouse assessed as body weight at 500 mg/kg, po administered once and measured after 3 days of administration; type: organism-based; settings: in vivo, 72 h, time 3 day
[10] = tested on: RT-112; assay: Induction of mitotic arrest in human RT-112 cells assessed as decrease in ERK1/2 phosphorylation at 5 uM measured by western blot analysis; type: functional, cell-based
[11] = Toxicity in female nude mouse assessed as body weight at 100 mg/kg, po after 4 days of administration; type: organism-based; settings: in vivo, 96 h, time 4 day
[12] = tested on: JIMT-1; assay: Antitumor activity in human JIMT-1 cells xenografted female nude mouse at 5 mg/kg, po administered every other day; type: functional, organism-based
[13] = tested on: JIMT-1; assay: Induction of mitotic arrest in human JIMT-1 cells assessed as increased localization of spindle assembly checkpoint marker BuBR1 to chromosomes at 500 nM measured by immunofluorescence staining method; type: functional, cell-based
[14] = tested on: JIMT-1; assay: Induction of DNA damage in human JIMT-1 cells at 200 nM assessed as change in p-H2AX levels in presence of Mps1 inhibitor TC Mps1 and measured by Western blot analysis; type: functional, cell-based
[15] = tested on: JIMT-1; assay: Induction of apoptosis in human JIMT-1 cells assessed as increase in apoptotic cells at 500 nM measured by Annexin-V and PI staining method (reference value: 4.1 +/- 0.3 %); type: functional
[16] = tested on: EMT6; assay: Antitumor activity in mouse EMT6 xenografted cells syngeneic Balb/c mouse
[17] = Toxicity in female nude mouse assessed as body weight at 100 mg/kg, po after 1 day of administration; type: organism-based; settings: in vivo, 24 h
[18] = tested on: 4T1; assay: Antitumor activity in mouse 4T1-Luc cells xenografted immunocompetent female mouse assessed as impairment of metastatic growth at 50 mg/kg, po administered every day; type: functional, organism-based
[19] = Toxicity in female nude mouse assessed as body weight at 100 mg/kg, po after 3 days of administration; type: organism-based; settings: in vivo, 72 h, time 3 day
[20] = Toxicity in female nude mouse assessed as organ toxicity at 500 mg/kg, po administered once for 1 to 3 days; type: organism-based; settings: in vivo, time 1-3 day
[21] = Toxicity in mouse EMt6 cells xenografted syngeneic Balb/c mouse assessed as effect on body weight; settings: in vivo
[22] = Toxicity in human JIMT-1 cells xenografted female nude mouse assessed as effect on body weight at 5 mg/kg, po administered every other day; type: organism-based; settings: in vivo
[23] = tested on: CAL-51; assay: Antiproliferative activity against human CAL-51 cells; type: functional, cell-based
[24] = Toxicity in human JIMT-1 cells xenografted female nude mouse assessed as effect on body weight at 25 mg/kg, po administered for 23 days; type: organism-based; settings: in vivo, 552 h, time 23 day
[25] = Toxicity in female nude mouse assessed as body weight at 500 mg/kg, po administered once and measured after 2 days of administration; type: organism-based; settings: in vivo, 48 h, time 2 day
[26] = tested on: JIMT-1; assay: Antitumor activity in human JIMT-1 cells xenografted female nude mouse at 2 mg/kg, iv administered once every 2 weeks; type: functional, organism-based
[27] = Plasma protein binding in human assessed as unbound fraction; type: ADME, cell-free
[28] = tested on: JIMT-1; assay: Induction of mitotic arrest in human JIMT-1 cells at 200 nM assessed as change in p-histone H3 levels in presence of Mps1 inhibitor TC Mps1 and measured by Western blot analysis; type: functional, cell-based
[29] = Toxicity in female nude mouse assessed as body weight at 100 mg/kg, po after 7 days of administration; type: organism-based; settings: in vivo, 168 h, time 7 day
[30] = Toxicity in mouse CT26 cells xenografted syngeneic immunocompetent Balb/c mouse assessed as effect on body weight at 25 to 50 mg/kg, po administered daily; type: organism-based; settings: in vivo, dose 25-50 mg/kg
[31] = Toxicity in female nude mouse assessed as body weight at 100 mg/kg, po after 5 days of administration; type: organism-based; settings: in vivo, 120 h, time 5 day
[32] = Toxicity in mouse 4T1-Luc cells xenografted immunocompetent female mouse assessed as animal survival at 50 mg/kg, po administered every day; type: organism-based; settings: in vivo
[33] = tested on: JIMT-1; assay: Stabilization of human TACC3 expressed in JIMT-1 cells at 1 uM incubated for 6 hrs by cellular thermal shift assay; type: cell-based
[34] = tested on: JIMT-1; assay: Induction of apoptosis in human JIMT-1 cells at 200 nM assessed as change in cleaved PARP levels in presence of Mps1 inhibitor TC Mps1 and measured by Western blot analysis; type: functional, cell-based
[35] = tested on: MCF-12A; assay: Antiproliferative activity against human MCF-12A cells; type: functional, cell-based
[36] = tested on: HCC1143; assay: Antiproliferative activity against human HCC1143 cells; type: functional, cell-based
[37] = tested on: JIMT-1; assay: Antitumor activity in human JIMT-1 cells xenografted female nude mouse at 2 mg/kg, po administered every other day; type: functional, organism-based
[38] = tested on: RT-4; assay: Antiproliferative activity against human RT-4 cells after 3 days by SRB assay; type: functional, cell-based; settings: RT-4, 72 h
[39] = Toxicity in human JIMT-1 cells xenografted female nude mouse assessed as effect on body weight at 2 mg/kg, po administered every other day; type: organism-based; settings: in vivo
[40] = tested on: JIMT-1; assay: Induction of apoptosis in human JIMT-1 cells assessed as change in cleaved caspase-3 levels and measured by Western blot analysis; type: functional, cell-based; settings: dose 0.1-5 µM
[41] = tested on: JIMT-1; assay: Induction of apoptosis in human JIMT-1 cells assessed as change in cleaved PARP levels and measured by Western blot analysis; type: functional, cell-based; settings: dose 0.1-5 µM
[42] = tested on: JIMT-1; assay: Antiproliferative activity against human JIMT-1 cells after 72 hrs by SRB assay; type: functional, cell-based; settings: JIMT-1, 72 h
[43] = tested on: CT26; assay: Antitumor activity in mouse CT26 cells xenografted syngeneic immunocompetent Balb/c mouse at 25 to 50 mg/kg, po administered daily; type: functional, organism-based; settings: dose 25-50 mg/kg
[44] = tested on: JIMT-1; assay: Stabilization of human TACC3 expressed in JIMT-1 cells at 10 uM incubated for 20 mins and measured in presence of pronase by drug affinity responsive target stability assay; type: cell-based
[45] = Toxicity in female nude mouse assessed as body weight at 100 mg/kg, po after 2 days of administration; type: organism-based; settings: in vivo, 48 h, time 2 day
[46] = tested on: JIMT-1; assay: Antitumor activity in human JIMT-1 cells xenografted female nude mouse at 25 mg/kg, po administered for 23 days; type: functional, organism-based; settings: time 23.0 day
[47] = Toxicity in female nude mouse assessed as body weight at 500 mg/kg, po administered once and measured after 1 day of administration; type: organism-based; settings: in vivo, 24 h
[48] = Toxicity in female nude mouse assessed as body weight at 100 mg/kg, po after 6 days of administration; type: organism-based; settings: in vivo, 144 h, time 6 day
[49] = tested on: JIMT-1; assay: Induction of mitotic arrest in human JIMT-1 cells assessed as change in p-histone H3 levels and measured by Western blot analysis; type: functional, cell-based; settings: dose 0.1-5 µM
[50] = Toxicity in human JIMT-1 cells xenografted female nude mouse assessed as effect on body weight at 2 mg/kg, iv administered once every 2 weeks; type: organism-based; settings: in vivo, 336 h
[51] = Toxicity in human HCT-116 cells xenografted immunocompromised female nude mouse assessed as effect on body weight at 25 to 50 mg/kg, po administered daily; type: organism-based; settings: in vivo, dose 25-50 mg/kg
[52] = tested on: JIMT-1; assay: Inhibition of colony formation in human JIMT-1 cells at 0.1 to 1 uM assessed as decrease in colony number incubated for 12 days by crystal violet staining based assay; type: functional, cell-based; settings: dose 0.1-1 µM, time 12.0 day
[53] = Binding affinity to purified recombinant human TACC3 by isothermal titration calorimetry
[54] = tested on: MDA-MB-231; assay: Antiproliferative activity against human MDA-MB-231 cells; type: functional, cell-based
[55] = Toxicity in mouse EMT6 cells xenografted syngeneic Balb/c mouse assessed as animal survival rate measured by Kaplan-Meier plot analysis; settings: in vivo
[56] = tested on: JIMT-1; assay: Induction of DNA damage in human JIMT-1 cells assessed as change in p-H2AX levels and measured by Western blot analysis; type: functional, cell-based; settings: dose 0.1-5 µM

solubility kinetic at 2 h [7]: < 1 µM | Activity [27]: 1.13% | pKd [53]: 8.82
Compound: COc1ccc(-c2cc(Nc3ccnc(N4CCOCC4)n3)on2)cc1
Activity [1]: Non-Toxic | Activity [2]: Active | Activity [3]: Active | pIC50 [4]: 6.52 | Activity [5]: Active | Activity [6]: Active | Activity [8]: Active | Activity [9]: 21.5 g | Activity [10]: Active | Activity [11]: 17 g | Activity [12]: Active | Activity [13]: Active | Activity [14]: Active | Activity [15]: 45.6% | Activity [16]: Active | Activity [17]: 17.4 g | Activity [18]: Active | Activity [19]: 16.3 g | Activity [20]: Non-Toxic | Activity [21]: Non-Toxic | Activity [22]: Non-Toxic | Activity [23]: Active | Activity [24]: Non-Toxic | Activity [25]: 20.9 g | Activity [26]: Active | Activity [28]: Active | Activity [29]: 16.8 g | Activity [30]: Non-Toxic | Activity [31]: 16.5 g | MSD [32]: 28 days | Activity [33]: Active | Activity [34]: Active | pIC50 [35]: < 5.00 | Activity [36]: Active | Activity [37]: Active | pIC50 [38]: 5.44 | Activity [39]: Non-Toxic | Activity [40]: Dose-Dependent Effect | Activity [41]: Dose-Dependent Effect | pIC50 [42]: 6.92 | Activity [43]: Active | Activity [44]: Active | Activity [45]: 16.2 g | Activity [46]: Active | Activity [47]: 21.1 g | Activity [48]: 16.7 g | Activity [49]: Dose-Dependent Effect | Activity [50]: Non-Toxic | Activity [51]: Non-Toxic | Activity [52]: Active | Activity [54]: Active | MSD [55]: 22 days | Activity [56]: Dose-Dependent Effect
